Measured values published in ChEMBL document CHEMBL5291721, “A preclinical secondary pharmacology resource illuminates target-adverse drug reaction associations of marketed drugs” (Nat Commun, 2023).

Key:
Bile acid receptor = target: T1, Bile acid receptor (Homo sapiens, UniProt Q96RI1); type: functional
T1 sequence (Q96RI1 whole entry): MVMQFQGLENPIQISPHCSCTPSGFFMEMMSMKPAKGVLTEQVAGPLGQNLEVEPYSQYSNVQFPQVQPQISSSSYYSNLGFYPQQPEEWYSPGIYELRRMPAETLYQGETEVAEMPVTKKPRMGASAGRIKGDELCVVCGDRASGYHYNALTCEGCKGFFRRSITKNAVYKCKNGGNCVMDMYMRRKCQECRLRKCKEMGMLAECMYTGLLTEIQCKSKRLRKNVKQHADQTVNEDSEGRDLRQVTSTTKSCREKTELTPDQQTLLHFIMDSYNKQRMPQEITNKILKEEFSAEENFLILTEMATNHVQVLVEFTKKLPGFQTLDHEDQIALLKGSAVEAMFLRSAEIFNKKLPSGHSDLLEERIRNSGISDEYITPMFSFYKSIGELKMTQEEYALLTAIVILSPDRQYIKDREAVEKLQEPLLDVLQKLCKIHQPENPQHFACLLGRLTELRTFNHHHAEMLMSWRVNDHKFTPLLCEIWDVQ

[1] = target: T2, Oxysterols receptor LXR-beta (Homo sapiens, UniProt P55055); type: functional
T2 sequence (P55055 whole entry): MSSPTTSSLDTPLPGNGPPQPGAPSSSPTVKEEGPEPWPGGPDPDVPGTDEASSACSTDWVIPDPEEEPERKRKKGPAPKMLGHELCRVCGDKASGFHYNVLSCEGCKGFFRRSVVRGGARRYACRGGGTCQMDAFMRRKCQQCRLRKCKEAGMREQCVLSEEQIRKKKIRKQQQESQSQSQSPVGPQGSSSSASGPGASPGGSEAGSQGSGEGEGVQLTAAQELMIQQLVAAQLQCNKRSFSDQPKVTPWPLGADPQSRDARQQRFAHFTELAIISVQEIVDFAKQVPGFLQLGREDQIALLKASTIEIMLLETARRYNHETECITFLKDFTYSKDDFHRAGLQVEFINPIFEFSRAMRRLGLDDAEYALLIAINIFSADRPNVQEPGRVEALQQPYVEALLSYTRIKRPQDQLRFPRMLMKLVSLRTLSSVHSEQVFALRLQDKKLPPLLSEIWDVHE

[2] = target: T3, Retinoic acid receptor alpha (Homo sapiens, UniProt P10276); type: functional, cell-based
T3 sequence (P10276 whole entry): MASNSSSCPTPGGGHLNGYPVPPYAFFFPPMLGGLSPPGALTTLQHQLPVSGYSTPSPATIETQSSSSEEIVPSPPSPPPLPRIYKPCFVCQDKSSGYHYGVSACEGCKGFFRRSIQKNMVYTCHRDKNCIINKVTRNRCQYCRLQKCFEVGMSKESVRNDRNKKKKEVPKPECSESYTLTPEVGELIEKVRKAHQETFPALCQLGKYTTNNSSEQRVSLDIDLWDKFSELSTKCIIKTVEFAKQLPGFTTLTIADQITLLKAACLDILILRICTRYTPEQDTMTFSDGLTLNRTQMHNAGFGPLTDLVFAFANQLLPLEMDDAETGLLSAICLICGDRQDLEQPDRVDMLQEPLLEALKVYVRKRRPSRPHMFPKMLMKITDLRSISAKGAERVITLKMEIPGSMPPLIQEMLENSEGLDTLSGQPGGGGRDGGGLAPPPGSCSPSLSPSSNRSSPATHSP

[3] = target: T4, Nuclear receptor subfamily 1 group I member 3 (Homo sapiens, UniProt Q14994); type: functional
T4 sequence (Q14994 whole entry): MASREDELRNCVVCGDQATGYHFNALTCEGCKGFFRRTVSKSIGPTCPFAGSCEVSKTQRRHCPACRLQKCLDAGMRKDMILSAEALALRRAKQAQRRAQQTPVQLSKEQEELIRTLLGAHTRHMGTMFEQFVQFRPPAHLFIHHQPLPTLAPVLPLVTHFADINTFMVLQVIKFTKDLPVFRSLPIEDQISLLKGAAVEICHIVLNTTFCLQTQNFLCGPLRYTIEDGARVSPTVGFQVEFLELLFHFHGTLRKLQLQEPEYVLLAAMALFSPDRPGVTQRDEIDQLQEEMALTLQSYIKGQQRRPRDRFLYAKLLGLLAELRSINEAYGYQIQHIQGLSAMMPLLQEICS

[4] = target: T5, Retinoic acid receptor gamma (Homo sapiens, UniProt P13631); type: functional, cell-based
T5 sequence (P13631 whole entry): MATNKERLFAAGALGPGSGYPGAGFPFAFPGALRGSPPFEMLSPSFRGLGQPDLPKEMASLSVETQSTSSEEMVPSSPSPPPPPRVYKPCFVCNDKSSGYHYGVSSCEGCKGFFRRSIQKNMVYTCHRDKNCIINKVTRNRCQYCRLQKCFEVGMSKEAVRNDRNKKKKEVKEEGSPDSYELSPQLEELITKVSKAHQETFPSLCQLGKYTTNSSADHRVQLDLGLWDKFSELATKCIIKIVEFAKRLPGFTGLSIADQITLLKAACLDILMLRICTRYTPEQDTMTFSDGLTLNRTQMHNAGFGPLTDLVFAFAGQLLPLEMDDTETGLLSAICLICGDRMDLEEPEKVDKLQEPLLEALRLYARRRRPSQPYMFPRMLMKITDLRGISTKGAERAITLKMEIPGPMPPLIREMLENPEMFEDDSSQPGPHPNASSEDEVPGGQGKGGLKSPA

[5] = target: T6, Peroxisome proliferator-activated receptor alpha (Homo sapiens, UniProt Q07869); type: functional
T6 sequence (Q07869 whole entry): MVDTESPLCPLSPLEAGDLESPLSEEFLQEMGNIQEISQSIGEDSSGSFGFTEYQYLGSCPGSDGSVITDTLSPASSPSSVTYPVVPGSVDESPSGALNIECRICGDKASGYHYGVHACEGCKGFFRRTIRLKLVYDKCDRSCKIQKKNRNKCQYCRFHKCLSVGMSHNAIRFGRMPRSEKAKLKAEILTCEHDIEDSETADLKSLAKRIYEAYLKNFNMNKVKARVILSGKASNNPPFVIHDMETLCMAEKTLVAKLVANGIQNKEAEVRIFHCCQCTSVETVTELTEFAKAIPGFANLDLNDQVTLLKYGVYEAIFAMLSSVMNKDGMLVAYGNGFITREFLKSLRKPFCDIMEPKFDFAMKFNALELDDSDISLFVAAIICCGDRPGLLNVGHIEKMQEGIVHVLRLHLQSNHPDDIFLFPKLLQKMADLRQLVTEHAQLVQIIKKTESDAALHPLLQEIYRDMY
Note: assay procedure not described here.

SMILES: CC(=O)N1CCN(c2ccc(OCC3COC(Cn4ccnc4)(c4ccc(Cl)cc4Cl)O3)cc2)CC1 (stereo unspecified) [KETOCONAZOLE]
- AC50 (Bile acid receptor): > 30 µM
- AC50 [1]: 4.7 µM
- AC50 [2]: > 30 µM
- AC50 [3]: 5 µM
- AC50 [4]: > 30 µM
- AC50 [5]: > 30 µM
